Measurements reported in PMC3527734, “Peripheral injections of melanin-concentrating hormone receptor 1 antagonist S38151 decrease food intake and body weight in rodent obesity models” (Frontiers in Endocrinology, 2012).
Read-outs that look alike come from different tables or passages of the source. Where a SMILES comes first, the peptide text is derived from it.

Assays:
[1] = stability in mouse plasma; format: in vitro ADME; settings: LC-MS/MS, representative of three experiments, read-out: % S38151 remaining
Method: First, S38151 was incubated for 16 h at 4°C and 37°C in mouse plasma or in TRIS buffer (pH 7.4). Next, plasma proteins were precipitated with two volumes of acetonitrile. After centrifugation and dilution with a water/acetonitrile mixture (50/50 v/v), the supernatant was injected onto a triple quadripole mass spectrometer (Ultima, Micromass WATERS Corporation, Milford, USA). The liquid chromatographic system consisted of an Agilent 1100 analytic pump (Agilent, Santa Clara, USA) equipped with an Alpha Mos CTC autosampler (Alpha Mos, Toulouse, France). Mass detection was performed using the m/z transition 743.5 > 163, in positive electrospray. A second stability study was performed at a lower concentration (1 μM) and for 4 h, with the following sampling times: 0, 15, 45, 90, and 240 min. At each sampling time, 50 μL of plasma were precipitated with two volumes of acetonitrile, and after centrifugation were directly injected onto the LC-MS/MS system. The same treatment was used for the buffer samples.
Figure 2 Studies regarding the stability of S38151. A solution of S38151 (40 μM) was incubated with either Tris buffer, pH 7.4 (hatched bars), or mouse plasma samples (dark bars) for 16 h at 4°C or 37°C. The samples were analyzed using liquid chromatography coupled to mass spectrometry. Experiments were repeated three times. The chart presented is representative of the experimental results. […]

Zucker fa/fa rats = assay: daily i.c.v. administration, feeding, drinking, body weight and motility; format: in vivo, rat
Excerpt: Wistar and Zucker fa/fa rats were anesthetized with Forène (Abbott Laboratories, Queenborough, UK), and a stainless steel guide cannula (Plastic Products Co, Roanoke, Va, USA) was stereotaxically implanted into the right lateral ventricle at the following coordinates relative to the bregma: AP −0.8 mm, L = −1.2 mm, and V = −3.5 mm. After a 7-day recovery period, during which the animals were handled each day to minimize non-specific stress, they were lightly anesthetized with Forène. Human/mouse/rat MCH (1 μg in a volume of 2.5 μ L, Bachem, Voisins-le-Bretonneux, France) or an equivalent volume of artificial cerebrospinal fluid (CSF) was then injected through the intraventricular cannula. Immediately after injection, the animals quickly recovered and were returned to their home cages. Only those animals responding within 2 h with a robust increase in food intake, indicating correct cannula placement, were used in the experiments described below. Two days after MCH injection, the rats were randomly assigned to different groups and studied in one of the following protocols.
The TSE Drinking and Feeding Monitor system was used to analyze ingestive behavior in these experiments (TSE Technical & Scientific Equipment GmbH, Bad Homburg, Germany). The rats' motility was also determined in these experiments using the MoTil® system (TSE). Zucker fa/fa rats were placed individually into plastic cages to which were attached both a feeding and a drinking sensor. The animals were habituated to normal food (A03 UAR, Orge, France) and water for at least 2 weeks before experimentation. […] The injections were repeated daily for a total of 7 days. After 7 days, the injections were stopped and each measured parameter was followed during a 5-day washout period.
Figure 4 The effects of repeated daily central administration of S38151 on food intake, water intake, body weight, and motility in Zucker fa/fa rats. One hour prior the beginning of the dark phase, different doses of S38151 (5, 10, or 20 nmol/kg) or vehicle were injected (i.c.v.) once daily for 7 days, followed by a washout period of 5 days. […] Repeated measures Two-Way ANOVA (treatment × time) was performed with a repeated measure of the factor “time.” Significant treatment and interaction effects are shown on the graph. ^+P < 0.05; ^++P < 0.01; ^+++P < 0.001.

DIO mice = assay: daily i.p. S38151 in diet-induced obese mice; format: in vivo, mouse
Method: In these studies, 13-week-old female C57BL/6J, ob/ob, and MCH1-KO mice were used. The mice were maintained on a 12-h light/dark cycle (lights on at 07:30 and off at 19:30) at 22 ± 3°C, and supplied with food pellets (6 mm diameter A03, UAR Laboratory chow, Epinay Villemuisson France) and tap water ad libitum. To induce obesity in C57BL/6J (creating diet-induced obese, or DIO, mice), mice were fed a high-fat diet (60 kcal% fat, 20 kcal% protein, 20 kcal% carbohydrate, ref D12492 from Research Diets, New Brunswick, NJ08901, USA) for 8 weeks starting at 4 weeks of age. In these experiments, DIO mice, ob/ob mice, and MCH^−/−1 mice were individually housed in a modular chamber that was placed on an activity platform to concurrently measure the food intake, water intake, and activity of the mice (ADDENFI, Les Cordeliers, Paris, France). For at least 2 weeks before experimentation, mice were habituated to a diet of 6 mm diameter food pellets of the following composition: 67.5% food flour, 26.5% sucrose, 5% gum tragacanth, 1.25% magnesium stearate (A03 UAR, Orge, France), and to i.p. injection. After this habituation period, food intake, drink intake, and body weight were measured for 3 consecutive days. The mice were randomized into three groups based on their food and water intake over the three preceding 24-h periods, and on their body weight. […]
Figure 9 The effects of repeated daily S38151 injection on food and water intake, body weight, and motility in diet-induced obese (DIO) mice. […] Results are expressed as mean ± SEM (n = 8 mice per group).

[2] = S38151 30 mg/kg i.p. daily for 16 days, data not shown
[3] = S38151 10 and 30 mg/kg i.p. daily for 5 days, significant from day 2 only at 30 mg/kg, n = 8

With `CSCC[C@@H]1NC(=O)[C@@H](NC(=O)c2ccc(NC(=N)N)cc2)CSSC[C@@H](C(=O)N[C@@H](Cc2c[nH]c3ccccc23)C(=O)O)NC(=O)[C@@H]2CCCN2C(=O)[C@H](CCCNC(=N)N)NC(=O)[C@H](Cc2ccc(O)cc2)NC(=O)[C@H](C(C)C)NC(=O)[C@H](CCCNC(=N)N)NC(=O)[C@H](CC(C)C)NC1=O` [S38151, p-guanidinobenzoyl-(Des-Gly10)-MCH (7–17)] (HELM PEPTIDE1{[N=C(N)Nc1ccc(C(=O)[*:2])cc1].C.M.L.R.V.Y.R.P.C.W}$PEPTIDE1,PEPTIDE1,2:R3-10:R3$$$V2.0; C-terminus assumed) the remaining at 16 h, 40 μM ([1]; 4°C) was 59%, the remaining at 16 h, 40 μM ([1]; 37°C) was 1.5% and the “body weight gain during the washout period” value (Zucker fa/fa rats; 5-day washout after 10 nmol/kg S38151 i.c.v. for 7 days) was “remained significantly less than control values”. For the same compound, the “motility during the washout period” value (Zucker fa/fa rats; 5-day washout after 20 nmol/kg S38151 i.c.v. for 7 days) was “remained significantly elevated”, the food intake (Zucker fa/fa rats; S38151 5, 10, 20 nmol/kg i.c.v. daily for 7 days, significant only at 20 nmol/kg, n = 8) was “dose-dependent inhibition” and the motility (Zucker fa/fa rats; S38151 10 and 20 nmol/kg i.c.v. daily for 7 days) was “significantly increased”. The body weight gain (Zucker fa/fa rats; S38151 10 and 20 nmol/kg i.c.v. daily for 7 days, compared with control rats) was “dose-dependent reduction”, the water intake (Zucker fa/fa rats; S38151 i.c.v. daily for 7 days, all injected doses except the 5 nmol dose) was “significantly inhibited” and the body weight gain (DIO mice; [2]) was “significant reduction”. For the same compound, the glycemia and insulinemia (DIO mice; [2]) was “reduced”, the “triglycerides, free fatty acids, and fat mass” value (DIO mice; [2]) was “significant reduction” and the glycemia and insulinemia (DIO mice; S38151 30 mg/kg i.p., day 6, data not shown) was “significant reductions”. For the same compound, the body weight gain (DIO mice; S38151 10 and 30 mg/kg i.p. daily for 5 days, significant at day 3 and day 1, respectively) was “reduction”, the drink intake (DIO mice; [3]) was “dose-dependent inhibition” and the food intake (DIO mice; [3]) was “dose-dependent inhibition”. The motility (DIO mice; S38151 10 and 30 mg/kg i.p., day 3 to day 5) was “significant reduction”.
